According to patent US6605638B1, “Use of branched chain fatty acids and derivatives thereof for inhibition of P-glycoprotein” (D-Pharm Limited, priority 2000, dated 2003):
Blank lines part the entries; values can stand above or below the molecule they belong to.

Columns and labels:
[1] = system: MES-SA/Dx5 cells; assay: MTT assay of doxorubicin toxicity in multi-drug resistant cells; conditions: for % Toxicity: alone, 72 hours
[2] = target: T1, P-glycoprotein (Bos taurus, UniProt A0A3Q1MB23); assay: Vincristine accumulation (uptake) in endothelial cells, in vitro BBB model
T1 sequence (A0A3Q1MB23 1-1267): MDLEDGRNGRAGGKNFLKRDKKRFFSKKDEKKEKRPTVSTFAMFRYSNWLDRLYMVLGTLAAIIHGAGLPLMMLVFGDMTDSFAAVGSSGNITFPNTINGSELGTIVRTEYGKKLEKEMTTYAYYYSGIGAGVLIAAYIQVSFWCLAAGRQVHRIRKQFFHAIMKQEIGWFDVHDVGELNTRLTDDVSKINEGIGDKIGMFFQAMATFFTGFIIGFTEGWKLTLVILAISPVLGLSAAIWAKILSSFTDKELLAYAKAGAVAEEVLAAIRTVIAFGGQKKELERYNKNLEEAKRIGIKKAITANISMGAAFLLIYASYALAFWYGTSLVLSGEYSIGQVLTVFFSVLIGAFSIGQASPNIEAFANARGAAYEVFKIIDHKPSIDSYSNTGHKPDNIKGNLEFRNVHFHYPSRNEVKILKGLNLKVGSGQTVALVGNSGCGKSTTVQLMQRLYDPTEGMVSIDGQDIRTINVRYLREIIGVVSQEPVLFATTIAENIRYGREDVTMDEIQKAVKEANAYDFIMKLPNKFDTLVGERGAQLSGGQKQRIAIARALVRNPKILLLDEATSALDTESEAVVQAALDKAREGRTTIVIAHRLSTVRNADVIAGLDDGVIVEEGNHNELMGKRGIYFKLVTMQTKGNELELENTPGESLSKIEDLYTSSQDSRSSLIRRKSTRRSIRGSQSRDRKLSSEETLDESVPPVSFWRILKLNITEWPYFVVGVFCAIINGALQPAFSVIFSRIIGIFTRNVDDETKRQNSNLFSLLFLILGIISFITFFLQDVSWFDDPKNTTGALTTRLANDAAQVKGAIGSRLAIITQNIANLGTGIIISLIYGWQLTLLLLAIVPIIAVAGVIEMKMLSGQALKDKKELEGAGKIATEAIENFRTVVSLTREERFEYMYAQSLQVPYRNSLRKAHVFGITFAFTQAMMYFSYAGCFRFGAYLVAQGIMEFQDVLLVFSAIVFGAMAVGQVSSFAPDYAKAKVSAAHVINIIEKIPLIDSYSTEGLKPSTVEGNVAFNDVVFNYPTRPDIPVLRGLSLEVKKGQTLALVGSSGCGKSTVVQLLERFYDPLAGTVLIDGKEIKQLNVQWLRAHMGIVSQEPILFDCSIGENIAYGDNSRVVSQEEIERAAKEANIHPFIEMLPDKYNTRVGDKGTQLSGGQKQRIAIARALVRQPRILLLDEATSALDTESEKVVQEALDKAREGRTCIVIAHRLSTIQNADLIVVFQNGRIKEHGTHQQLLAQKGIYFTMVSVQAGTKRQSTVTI

[3] = system: endothelial cell monolayers; assay: [14C]-sucrose permeability (integrity) of endothelial cell monolayers, in vitro BBB model
[4] = target: T1, P-glycoprotein; assay: Vincristine transport/clearance across endothelial cell monolayers, in vitro BBB co-culture model; format: cell-based, bovine; parameters: P-glycoprotein is expressed in cultured endothelial cells; endogenous in cells; host or cells: primary bovine brain capillary endothelial cells, co-cultured with newborn rat astrocytes in the lower compartment

SMILES: CCCCCCCCCCC(CCC)C(=O)O (stereo not drawn) [DP-3,10, 2-propyldodecanoic acid]
- % Toxicity ([1]; 12.5 μg/ml): 0.1%

- Increase in vincristine uptake compared with verapamil ([2]; Example 5, 0.001, 0.005 or 0.01 mg/ml, 60 min): lower than that observed with verapamil
- Vincristine accumulation in the cells relative to that caused by verapamil ([2]; Example 5, 0.02 or 0.08 mg/ml, 60 minute incubation): 2-3 fold
- Paracellular breakdown (opening of the tight junctions) of endothelial cells ([3]; 0.01 mg/ml, 48 hours incubation): no paracellular breakdown
- Clearance of vincristine ([4]; Example 4, even with lowest concentration 0.08 mg/ml, similar to control without cells): significant clearance
- Transport of vincristine ([4]; Example 5, 0.001 mg/ml): significant increase
- Transport of vincristine ([4]; Example 5, 0.02 and 0.08 mg/ml): Larger effects
- Transport of vincristine ([4]; Example 5 conclusion, low concentration 0.001—0.01 mg/ml): increase
SMILES: CCCCCCCCCCCCCCC(CCC)C(=O)O (stereo not drawn) [DP-3,14, 2-propylhexadecanoic acid]
- Cellular accumulation of vincristine compared with verapamil ([2]; Example 4, 0.08 and 0.16 mg/ml, 60 min): more pronounced than the same effect induced by verapamil
- Sucrose permeability of the monolayer ([3]; Example 4, 0.08 mg/ml, 60 min): 274%
- Sucrose permeability of the monolayer ([3]; Example 4, 0.16 mg/ml, 60 min): 266%
- Sucrose permeability of the monolayer ([3]; Example 4, […], 60 min): 278%
- Sucrose permeability of the monolayer (significant decrease) ([3]; Example 5, 0.001 mg/ml): 66%
- Sucrose permeability of the monolayer (significant decrease) ([3]; Example 5, 0.005 mg/ml): 68%
- Sucrose permeability of the monolayer ([3]; Example 5, 0.01 mg/ml): No change
- Sucrose permeability of the monolayer ([3]; Example 5, 0.02 mg/ml, 60 min): 452%
- Sucrose permeability of the monolayer ([3]; Example 5, 0.08 mg/ml, 60 min): 574%
- Transport of sucrose (paracellular marker) ([3]; Example 5 conclusion, 0.001—0.01 mg/ml): no increase

SMILES: C#CCC(CCCCCCCCCCCC)C(=O)O (stereo not drawn) [DP-3-yl,12, 2,3-propynyltetradecanoic acid]
- % Toxicity ([1]; 3.125 μg/ml): 0.48%

SMILES: CCCCCCCC(CCCCCCC)C(=O)O [DP-7,7, 2-heptylnonanoic acid]
- % Toxicity ([1]; 3.125 μg/ml): 0.1%

SMILES: COc1cccc2c1C(=O)c1c(O)c3c(c(O)c1C2=O)C[C@@](O)(C(=O)CO)C[C@@H]3O[C@H]1C[C@H](N)[C@H](O)[C@H](C)O1 [Dox, doxorubicin, reference compound]
- % Toxicity ([1]; 0.125 μg/ml): 0%
- Concentration up to which MES-SA/Dx5 cells are resistant ([1]; calibration experiments): ≤ 250 ng/mL

SMILES: CC[C@]1(O)C[C@H]2CN(CCc3c([nH]c4ccccc34)[C@@](C(=O)OC)(c3cc4c(cc3OC)N(C=O)[C@H]3[C@@](O)(C(=O)OC)[C@H](OC(C)=O)[C@]5(CC)C=CCN6CC[C@]43[C@@H]65)C2)C1 [vincristine, [γ-^3H]Vincristine sulphate, reference compound]
- Toxicity for the endothelial cells / integrity of the monolayers ([3]; Example 4, 50 nM vincristine, verapamil 25 μM): not toxic
- Permeability coefficient for [14C]-sucrose (Pesucrose) ([3]; Example 4, with 50 nM vincristine): 1.33±0.08 ×10^−3 cm/min
